Columns and labels:
[1] = test system: MCF7, T-47D and ZR-75.1 cells; test: Colony formation assay, malignant ATB^0,+-positive mammary epithelial cell lines; assay type: cell-based; details: Homo sapiens, 288 h, 2.5 mM, 12 days, regular culture medium
Protocol: The colony formation assay was performed as described previously (Thangaraju et al., 2006, Cancer Res. 66, 11560-11564). Mammary epithelial cells were seeded on to 6-well plates (10000 cells per well) in DMEM. After 24 hours, cells were exposed to varying concentrations of α-methyl-DL-tryptophan or 1-methyl-DL-tryptophan for 2 weeks, changing medium every 2 days. Cells were washed with PBS and fixed in 100% (v/v) methanol for 30 min followed by staining with KaryoMAX Giemsa stain for one hour. The wells were washed with water and dried overnight at room temperature. Finally, the dye in the wells was dissolved with 1% SDS in 0.2 M NaOH for one hour, and the attenuance of the released dye was measured at 630 nm.
The present studies have identified α-methyl-DL-tryptophan as a blocker of ATB^0,+ and also have shown that the compound is able to block the transport of amino acids via ATB^0,+ under conditions that stimulate those in vivo in terms of amino acid concentrations. […] For this, we treated the human mammary epithelial cell lines with 2.5 mM α-methyl-DL-tryptophan in the presence of regular culture medium for 12 days in clonogenic assay and quantified the colony formation for each cell line in the presence and absence of α-methyl-DL-tryptophan (FIG. 8). […]

[2] = test system: MCF7 cells; test: Cell cycle analysis (FACS, propidium iodide) in MCF7 cells; assay type: cell-based, human; details: 2.5 mM; 24 hours
Protocol: (§1) MCF10A (an ATB^0,+-negative non-malignant cell line), MCF7 (an ATB^0,+-positive malignant cell line) and MDA-MB453 (an ATB^0,+-negative malignant cell line) cells were cultured in 6-well plates in a regular culture medium in the presence or absence of α-methyl-DL-tryptophan (2.5 mM) for 24, 48 and 72 hours. Cells were fixed in 50% (v/v) ethanol, treated with 0.1% sodium citrate, 1 mg/ml RNase A and 50 μg/ml propidium iodide, and subjected to FACS (Becton Dickinson FACSCalibur™) analysis. The amount of DNA in these cells, detected as chromosome content by propidium iodide binding, was used to identify cells in various stages of cell cycle: G1/G0, 2N; S, 2-4 N; G2/M, 4N (where N is the normal chromosome content).
(§2) Since treatment with α-methyl-DL-tryptophan suppressed colony formation in malignant cell lines in an ATB^0,+-dependent manner, we investigated the influence of this treatment on cell cycle to determine which stage of the cycle is affected. We used three different cell lines in this experiment: MCF10A (non-malignant and ATB^0,+-negative), MCF7 (malignant and ATB^0,+-positive) and MDA-MB453 (malignant and ATB^0,+-negative) (FIG. 9). […] In contrast, the treatment affected the cell cycle progression in the ATB^0,+-positive MCF7 cell line. The cells were arrested at G1/G0 stage to a significant extent when treated with α-methyl-DL-tryptophan. […]

[3] = test system: MCF10A and MDA-MB453 cell lines; test: Cell cycle analysis (FACS, propidium iodide) in ATB^0,+-negative cell lines; assay type: cell-based, human; details: 2.5 mM; 24, 48 and 72 hours
Protocol: as §1, §2

How did the inhibition at 2500 µM [1] turn out when `CC(N)(Cc1c[nH]c2ccccc12)C(=O)O` (racemic) [α-methyl-DL-tryptophan] was run?
The inhibition at 2500 µM was 60 to 75%.

What about the “percentage of MCF7 cells in G1/G0-phase” value [2] of the same molecule?
The value was 82±1 percentage.

What about the “percentage of MCF7 cells in S-phase” value [2] of the same molecule?
The value was 3±1 percentage.

And the “effect on cell cycle” value [3]?
Its value is “no effect on cell cycle”.
